According to US5616615A, “Enaminone esters” (priority 1995, dated 1997):
Where two headings read alike, the source gives them in different places.

Columns and labels:
bicuculline = test: Phase V quantification against bicuculline; type: in vivo; settings: 12.5, 25, 50 and 100 mg/kg
Procedure: (§1) Both 12 and 27 were evaluated in Phase V of the ADD Program evaluation scheme. Phase V provides quantification against bicuculline, picrotoxin, pentylenetetrazol, and strychnine. This screen provides information on the mechanism of action of the anticonvulsant activity. Bicuculline, picrotoxin, and strychnine correspond to GABA inhibitory function, chloride channel inhibition and inhibition by glycine respectively.

in vivo [1] = settings: rat, po; for Tox, animals toxic/tested: 50 mg/kg
Text: (§2) This oral screen is designated as phase VI.

seizures = test: Anticonvulsant evaluation (ASP phase I / overall); type: in vivo, mice; settings: for minimal effective dose: Mus musculus, ip, Phase I, read-out: ASP Classification
Outline: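 Male Carworth Farms #1 mice; maximal electroshock seizures elicited by 60-cycle AC, 50 mA, 0.2 s via corneal electrodes after a drop of 0.9% saline in the eye. Animals observed for 30 minutes.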

strychnine = test: Phase V quantification against strychnine; type: in vivo; settings: 12.5, 25, 50 and 100 mg/kg
Procedure: as §1

Corneal Kindled rats = test: Corneal kindling; type: in vivo
Procedure: Corneal kindling studies were performed in our laboratories on 12 and 27 and the results are shown in Tables XI and XII and FIGS. 1A and 1B. Comparative data for the commercial products are included. Seizures evoked in electroshock-kindled rats provide a suitable model consistent with complex partial seizures evolving into generalized motor seizures in humans.
^a Rats kindled to Stage 5. Endpoint was reduction from Stage 5 to […]

[2] = system: Amygdala Kindled Seizures; test: Suppression of amygdala kindled seizures; type: in vivo
Procedure: Compounds 12 and 27 were evaluated in our laboratory for suppression of amygdala kindled seizures.

picrotoxin = test: Phase V quantification against picrotoxin; type: in vivo; settings: 12.5, 25, 50 and 100 mg/kg
Procedure: as §1

electroshock seizures = test: MES maximal electroshock test, rats ip; type: in vivo; settings: for ED50: Rattus norvegicus, ip
Text: (§3) Maximal electroshock seizures are elicited with a 60-cycle alternating current of 50 mA intensity (5-7 times that necessary to elicit minimal electroshock seizures) delivered via corneal electrodes for 0.2 seconds. A drop of 0.9% saline is instilled in the eye prior to application of the electrodes in order to […].

[3] = system: Subcutaneous Pentylenetetrazol seizure; test: sc Met subcutaneous pentylenetetrazol (Metrazol) seizure test, mice; type: in vivo; settings: Mus musculus, sc; for responders at 10 mg/kg: read-out: scMet, animals protected/tested; for responders at 300 mg/kg / responders at 100 mg/kg: read-out: scMet, animals protected/tested (converted)
in vivo [4] = settings: mouse, in vivo, ip
Procedure: The first phase of the ADD Program involved performing tests on male Carworth Farms #1 mice. […] Three tests were performed:
In the second phase of the ADD program protocol, estimates of anticonvulsant activity and neurotoxicity are quantified. The median effective dose (ED50) in the MES, sc Met, and rotorod test is determined. In the case of a compound with apparent activity in only one anticonvulsant test, testing is carried out in the other up to, and in some cases beyond, doses which produce neurological deficit. Compounds which fail to produce minimal neurological deficit are tested whenever possible to doses ten times their lowest anticonvulsant ED50. […] The rotorod ED50 is determined at the time of the peak neurologic deficit.

[5] = system: Maximal electroshock seizures; test: MES maximal electroshock seizure test, mice ip; type: in vivo; parameters: TPE (time of peak effect), activity: unit not given here; settings: ip; for responders at 10 mg/kg / responders at 100 mg/kg: read-out: MES, animals protected/tested (converted); for responders at 300 mg/kg: read-out: MES, animals protected/tested
Procedure: Three tests were performed:
1. MES--Electroshock Seizure Test
as §3

pentylenetetrazol = test: Phase V quantification against pentylenetetrazol; type: in vivo; settings: 12.5, 25, 50 and 100 mg/kg
Procedure: as §1

[6] = system: Maximal electroshock seizures; test: Phase VI oral MES test, rats; type: in vivo; settings: oral; for responders at 50 mg/kg: Rattus norvegicus, read-out: MES, animals protected/tested (converted)
Text: as §3, §2

in vivo [7] = settings: rat, ip
Procedure: (§4) The rotorod test is used to elevate neurotoxicity. The animal is placed on a 1 inch diameter knurled plastic rod rotating at 6 rpm. […] Neurologic toxicity is defined as the failure of the animal to remain on the rod for 1 minute and the results are expressed as the number of animals protected/the number of animals tested.
(§5) The toxicity evaluation for the commercial agents as previously indicated was based on the onset of ataxia.

Procedure for Neurotoxicity, rats ip: as §4, §5

## COC(=O)C1C(=O)C=C(NCc2ccccc2)CC1C (stereo not drawn) [Compound 12, Methyl 4-(benzyl)amino-6-methyl-2-oxocyclohex-3-en-1-oate]
bicuculline
  protection against bicuculline: uniformly inactive
In vivo [1]
  TD50: > 500 mg/kg
  selectivity ratio: 18.7
  Tox, animals toxic/tested: 0/4
seizures
  minimal effective dose: < 100 mg/kg
seizures; mouse, in vivo
  anticonvulsant activity: highly active
strychnine
  protection against strychnine: uniformly inactive
Corneal Kindled rats; 50 mg/kg
  % Reduction: 17%
Corneal Kindled rats; 60 mg/kg
  % Reduction: 23%
Corneal Kindled rats; 75 mg/kg
  % Reduction: 75%
Corneal Kindled rats; Rattus norvegicus, po, 0.5 h, read-out: ED50 (reduction from Stage 5 to Stage 4)
  ED50: 41.9 mg/kg
Neurotoxicity, rats ip; 100 mg/kg, 0.25 h (Table X)
  Tox, animals toxic/tested: 0/4
Neurotoxicity, rats ip; 100 mg/kg, 0.50 h (Table X)
  Tox, animals toxic/tested: 0/4
Neurotoxicity, rats ip; 100 mg/kg, 1.00 h (Table X)
  Tox, animals toxic/tested: 0/4
Neurotoxicity, rats ip; 100 mg/kg, 2.00 h (Table X)
  Tox, animals toxic/tested: 0/4
Neurotoxicity, rats ip; 100 mg/kg, 4.00 h (Table X)
  Tox, animals toxic/tested: 0/4
Neurotoxicity, rats ip; ip, 100 mg/kg, four hour evaluation
  toxicity: No toxicity was noted
[2]; 500 mg/kg
  Afterdischarge Amygdala: Duration: 73.9 s
  Afterdischarge Cortex: Duration: 78.9 s
  Afterdischarge Cortex: Latency: 2.8 s
  Behavioral Seizure: Duration: 79.5 s
  Behavioral Seizure: Latency: 2.1 s
  Forelimb Clonus: Duration: 44.2 s
  Forelimb Clonus: Latency: 9.3 s
  Seizure Stage: 5.0
[2]; in vivo
  suppression of amygdala kindled seizures: no significant activity
picrotoxin
  protection against picrotoxin: uniformly inactive
Electroshock seizures; 100 mg/kg, 0.25 h (Table X)
  MES, animals protected/tested: 4/4
Electroshock seizures; 100 mg/kg, 0.50 h (Table X)
  MES, animals protected/tested: 4/4
Electroshock seizures; 100 mg/kg, 1.00 h (Table X)
  MES, animals protected/tested: 4/4
Electroshock seizures; 100 mg/kg, 2.00 h (Table X)
  MES, animals protected/tested: 4/4
Electroshock seizures; 100 mg/kg, 4.00 h (Table X)
  MES, animals protected/tested: 3/4
[3]; 0.5 h, 30 min
  responders at 10 mg/kg: 10%
  responders at 300 mg/kg: 0%
[3]; 4 h, 4 h
  responders at 10 mg/kg: 10%
  responders at 300 mg/kg: 0%
In vivo [4]
  TD50: > 500 mg/kg
  TPE (time of peak effect), toxicity: 1
  selectivity ratio: 7.73
[5]; Mus musculus, 0.5 h, 30 min
  responders at 10 mg/kg: 66.7%
  responders at 300 mg/kg: 100%
[5]; Mus musculus, 4 h, 4 h
  responders at 10 mg/kg: 0%
  responders at 300 mg/kg: 0%
[5]; Mus musculus, Phase II, time of peak effect
  ED50: 64.7 mg/kg
[5]; Phase II
  TPE (time of peak effect), activity: 0.5
pentylenetetrazol
  protection against pentylenetetrazol: uniformly inactive
[6]; Phase VI, rat
  ED50: 26.8 mg/kg
[6]; 0.5 h, 0.50 h
  responders at 50 mg/kg: 100%
[6]; 0.25 h
  responders at 50 mg/kg: 50%
[6]; 1.00 h
  responders at 50 mg/kg: 75%
[6]; 2.00 h
  responders at 50 mg/kg: 50%
[6]; 4.00 h
  responders at 50 mg/kg: 50%

## COC(=O)C1C(=O)C=C(Nc2ccc(Br)cc2)CC1C (stereo not drawn) [Compound 113]
In vivo [1]
  Tox, animals toxic/tested: 0/4
seizures
  minimal effective dose: < 100 mg/kg
Neurotoxicity, rats ip; 100 mg/kg, 2.00 h (Table VIII)
  Tox, animals exhibiting neurotoxicity/tested: 0/8
Neurotoxicity, rats ip; 180 mg/kg, 2.00 h (Table VII)
  Tox, animals exhibiting neurotoxicity/tested: 2/4
Neurotoxicity, rats ip; 180 mg/kg, 2.00 h (Table VIII)
  Tox, animals exhibiting neurotoxicity/tested: 2/8
Neurotoxicity, rats ip; 180 mg/kg, 4.00 h
  Tox, animals exhibiting neurotoxicity/tested: 1/8
Neurotoxicity, rats ip; 220 mg/kg, 0.25 h
  Tox, animals exhibiting neurotoxicity/tested: 0/8
Neurotoxicity, rats ip; 220 mg/kg, 0.50 h
  Tox, animals exhibiting neurotoxicity/tested: 0/8
Neurotoxicity, rats ip; 220 mg/kg, 1.00 h
  Tox, animals exhibiting neurotoxicity/tested: 1/8
Neurotoxicity, rats ip; 220 mg/kg, 2.00 h
  Tox, animals exhibiting neurotoxicity/tested: 4/8
Neurotoxicity, rats ip; 220 mg/kg, 2.00 h (Table VIII)
  Tox, animals exhibiting neurotoxicity/tested: 4/8
Neurotoxicity, rats ip; 220 mg/kg, 6.00 h
  Tox, animals exhibiting neurotoxicity/tested: 0/8
Neurotoxicity, rats ip; 220 mg/kg, 24.00 h
  Tox, animals exhibiting neurotoxicity/tested: 0/8
Neurotoxicity, rats ip; 440 mg/kg, 2.00 h
  Tox, animals exhibiting neurotoxicity/tested: 6/8
Electroshock seizures; 1.2 mg/kg, 0.25 h
  MES, animals protected/tested: 0/8
Electroshock seizures; 3.6 mg/kg, 0.25 h
  MES, animals protected/tested: 5/8
Electroshock seizures; 4.5 mg/kg, 0.25 h
  MES, animals protected/tested: 3/8
Electroshock seizures; 4.8 mg/kg, 0.25 h
  MES, animals protected/tested: 3/4
Electroshock seizures; 4.8 mg/kg, 0.50 h
  MES, animals protected/tested: 3/4
Electroshock seizures; 4.8 mg/kg, 1.00 h
  MES, animals protected/tested: 2/4
Electroshock seizures; 6.0 mg/kg, 0.25 h
  MES, animals protected/tested: 3/4
Electroshock seizures; 6.0 mg/kg, 0.50 h
  MES, animals protected/tested: 2/4
Electroshock seizures; 6.0 mg/kg, 1.00 h
  MES, animals protected/tested: 3/4
Electroshock seizures; 6.0 mg/kg, 2.00 h
  MES, animals protected/tested: 0/4
Electroshock seizures; 7.0 mg/kg, 0.25 h
  MES, animals protected/tested: 7/8
Electroshock seizures; 0.25 h
  ED50: 4 mg/kg
[3]; 0.5 h, 30 min
  responders at 100 mg/kg: 0%
  responders at 300 mg/kg: 40%
[3]; 4 h, 4 h
  responders at 100 mg/kg: 0%
  responders at 300 mg/kg: 0%
[5]; Mus musculus, 0.5 h, 30 min
  responders at 100 mg/kg: 100%
  responders at 300 mg/kg: 100%
[5]; Mus musculus, 4 h, 4 h
  responders at 100 mg/kg: 100%
  responders at 300 mg/kg: 100%
In vivo [7]
  TD50 at 2 h: 270 mg/kg
  selectivity ratio: 67.4
[6]; 0.5 h, 0.50 h
  responders at 50 mg/kg: 100%
[6]; 0.25 h
  responders at 50 mg/kg: 75%
[6]; 1.00 h
  responders at 50 mg/kg: 100%
[6]; 2.00 h
  responders at 50 mg/kg: 100%
[6]; 4.00 h
  responders at 50 mg/kg: 100%

## COC(=O)C1C(=O)C=C(Nc2ccc(C(F)(F)F)cc2)CC1C (stereo not drawn) [Compound 115]
In vivo [1]
  Tox, animals toxic/tested: 0/4
seizures
  minimal effective dose: < 100 mg/kg
Neurotoxicity, rats ip; 8 mg/kg, 0.25-24 h
  Tox, animals exhibiting neurotoxicity/tested: 0/2
Neurotoxicity, rats ip; 16 mg/kg, 0.25-24 h
  Tox, animals exhibiting neurotoxicity/tested: 0/2
Neurotoxicity, rats ip; 32 mg/kg, 0.25-24 h
  Tox, animals exhibiting neurotoxicity/tested: 0/2
Neurotoxicity, rats ip; 64 mg/kg, 0.25-24 h
  Tox, animals exhibiting neurotoxicity/tested: 0.2
Electroshock seizures; 1.0 mg/kg, 0.50 h
  MES, animals protected/tested: 0/8
Electroshock seizures; 2.0 mg/kg, 0.50 h (Table VII)
  MES, animals protected/tested: 1/4
Electroshock seizures; 2.0 mg/kg, 0.50 h (Table VIII)
  MES, animals protected/tested: 3/8
Electroshock seizures; 2.0 mg/kg, 1.00 h
  MES, animals protected/tested: 1/4
Electroshock seizures; 3.0 mg/kg, 0.50 h
  MES, animals protected/tested: 3/8
Electroshock seizures; 3.5 mg/kg, 0.50 h
  MES, animals protected/tested: 4/8
Electroshock seizures; 4.0 mg/kg, 0.25 h
  MES, animals protected/tested: 2/4
Electroshock seizures; 4.0 mg/kg, 0.50 h (Table VII)
  MES, animals protected/tested: 3/4
Electroshock seizures; 4.0 mg/kg, 0.50 h (Table VIII)
  MES, animals protected/tested: 7/8
Electroshock seizures; 4.0 mg/kg, 1.00 h
  MES, animals protected/tested: 3/4
Electroshock seizures; 4.0 mg/kg, 2.00 h
  MES, animals protected/tested: 2/4
Electroshock seizures; 0.5 h, 0.50 h
  ED50: 2.95 mg/kg
[3]; 0.5 h, 30 min
  responders at 100 mg/kg: 0%
  responders at 300 mg/kg: 40%
[3]; 4 h, 4 h
  responders at 100 mg/kg: 0%
  responders at 300 mg/kg: 0%
[5]; Mus musculus, 0.5 h, 30 min
  responders at 100 mg/kg: 100%
  responders at 300 mg/kg: 100%
[5]; Mus musculus, 4 h, 4 h
  responders at 100 mg/kg: 33.3%
  responders at 300 mg/kg: 100%
In vivo [7]
  TD50: > 64 mg/kg
  selectivity ratio: > 21.7
[6]; 0.5 h, 0.50 h
  responders at 50 mg/kg: 100%
[6]; 0.25 h
  responders at 50 mg/kg: 75%
[6]; 1.00 h
  responders at 50 mg/kg: 100%
[6]; 2.00 h
  responders at 50 mg/kg: 100%
[6]; 4.00 h
  responders at 50 mg/kg: 100%
